Results as given in PubChem BioAssay AID256 (DTP/NCI, 2004).
“And” between values parts separate entries of the source, which are not always exact repeats. Equal entries are not always repeated. Toxic doses and inconclusive results are not listed.

System: CD2F1 mice, L1210 leukemia ip, survival T/C
Assay: NCI In Vivo Anticancer Drug Screen. Data for tumor model L1210 Leukemia (intraperitoneal) in CD2F1 (CDF1) mice
Conditions: higher = longer survival
Method in brief: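 Each value reflects a quotient of treated over vehicle control outcomes in mice with a transplanted tumor.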

[1] = endpoint: mean survival time, dose: 200.0 mg/kg/injection, schedule: Q01DX009 (ip), vehicle: saline with Tween-80
[2] = endpoint: mean survival time, dose: 400.0 mg/kg/injection, schedule: Q01DX009 (ip), vehicle: saline with Tween-80
[3] = endpoint: mean survival time, dose: 100.0 mg/kg/injection, schedule: Q01DX009 (ip), vehicle: saline with Tween-80
[4] = endpoint: mean survival time, dose: 100.0 mg/kg/injection, schedule: Q04DX003 (ip), vehicle: saline with Tween-80
[5] = endpoint: mean survival time, dose: 200.0 mg/kg/injection, schedule: Q04DX003 (ip), vehicle: saline with Tween-80
[6] = endpoint: mean survival time, dose: 400.0 mg/kg/injection, schedule: Q04DX003 (ip), vehicle: saline with Tween-80
[7] = endpoint: mean survival time, dose: 100.0 mg/kg/injection, schedule: Q04DX002 (ip), vehicle: saline with Tween-80
[8] = endpoint: mean survival time, dose: 200.0 mg/kg/injection, schedule: Q04DX002 (ip), vehicle: saline with Tween-80
[9] = endpoint: mean survival time, dose: 400.0 mg/kg/injection, schedule: Q04DX002 (ip), vehicle: saline with Tween-80
[10] = endpoint: mean survival time, dose: 100.0 mg/kg/injection, schedule: Q01DX001 (ip), vehicle: saline with Tween-80
[11] = endpoint: mean survival time, dose: 200.0 mg/kg/injection, schedule: Q01DX001 (ip), vehicle: saline with Tween-80

In the case of `OCc1ccc(O)cc1`, the T/C (endpoint: mean survival time, dose: 100.0 mg/kg/injection, schedule: Q04DX003 (ip), vehicle: other) is reported as 100 % of control, the T/C (endpoint: mean survival time, dose: 200.0 mg/kg/injection, schedule: Q04DX003 (ip), vehicle: other) is reported as 95 % of control and the T/C (endpoint: mean survival time, dose: 400.0 mg/kg/injection, schedule: Q04DX003 (ip), vehicle: other) is reported as 94 % of control.
`CCC(C)N(C)/N=N/c1nc[nH]c1C(N)=O` (stereo not drawn) was tested, and the T/C [1] was 104 % of control.
In the case of `Cc1ccc(N=C(C(=Nc2ccc(C)cc2)c2ccccc2)c2ccccc2)cc1`, the T/C [1] is reported as 101 % of control and the T/C [2] is reported as 92 % of control.
`COC(=O)CC1(C)C(=O)CCC2(C)C1=CCc1ccc(OC)cc12` (stereo not drawn) was tested, and the T/C (endpoint: mean survival time, dose: 100.0 mg/kg/injection, schedule: Q01DX001 (sc), vehicle: steriod suspending solution) was 102 % of control, the T/C (endpoint: mean survival time, dose: 200.0 mg/kg/injection, schedule: Q01DX001 (sc), vehicle: steriod suspending solution) was 96 % of control and the T/C (endpoint: mean survival time, dose: 400.0 mg/kg/injection, schedule: Q01DX001 (sc), vehicle: steriod suspending solution) was 101 % of control.
In the case of `CC(=O)Oc1ccc(N2C(=O)C=CC2=O)cc1` (tested in a mixture with another compound), the T/C [3] is reported as 95 % of control, the T/C [4] is reported as 91 % of control and the T/C [1] is reported as 91 % of control. For the same compound, the T/C [5] was 90 % of control, the T/C [2] was 91 % of control and the T/C [6] was 87 % of control.
In the case of `CO[C@@]12[C@@H]3N[C@@H]3CN1C1=C(C(=O)C(N3CCCC3)=C(C)C1=O)[C@@H]2COC(N)=O`, the T/C (endpoint: median survival time, dose: 3.12 mg/kg/injection, schedule: Q01DX001 (ip), vehicle: saline with Tween-80) is reported as 165 % of control, the T/C (endpoint: median survival time, dose: 6.26 mg/kg/injection, schedule: Q01DX001 (ip), vehicle: saline with Tween-80) is reported as 151 % of control and the T/C (endpoint: median survival time, dose: 12.0 mg/kg/injection, schedule: Q01DX001 (ip), vehicle: saline with Tween-80) is reported as 152 % of control and 197 % of control. For the same compound, the T/C (endpoint: median survival time, dose: 12.5 mg/kg/injection, schedule: Q01DX001 (ip), vehicle: saline with Tween-80) was 370 % of control, the T/C (endpoint: median survival time, dose: 24.0 mg/kg/injection, schedule: Q01DX001 (ip), vehicle: saline with Tween-80) was 171 % of control and 326 % of control and the T/C (endpoint: median survival time, dose: 25.0 mg/kg/injection, schedule: Q01DX001 (ip), vehicle: saline with Tween-80) was 111 % of control. For the same compound, the T/C (endpoint: median survival time, dose: 50.0 mg/kg/injection, schedule: Q01DX001 (ip), vehicle: saline with Tween-80) was 91 % of control.
With `O=NN(CCOS(=O)(=O)c1ccc(Br)cc1)C(=O)NC1CCCCC1` the T/C (endpoint: mean survival time, dose: 100.0 mg/kg/injection, schedule: Q01DX001 (ip), vehicle: other) was 102 % of control and the T/C (endpoint: mean survival time, dose: 200.0 mg/kg/injection, schedule: Q01DX001 (ip), vehicle: other) was 101 % of control.
With `COC1(C)CCC(=O)O1` (stereo not drawn) the T/C (endpoint: mean survival time, dose: 100.0 mg/kg/injection, schedule: Q04DX003 (ip), vehicle: saline) was 96 % of control, the T/C (endpoint: mean survival time, dose: 200.0 mg/kg/injection, schedule: Q04DX003 (ip), vehicle: saline) was 96 % of control and the T/C (endpoint: mean survival time, dose: 400.0 mg/kg/injection, schedule: Q04DX003 (ip), vehicle: saline) was 101 % of control.
For `CCCC1(CC(C)CC)C(=O)NC(=O)NC1=O` (stereo not drawn) (tested in a mixture with another compound), the T/C (endpoint: mean survival time, dose: 75.0 mg/kg/injection, schedule: Q01DX001 (ip), vehicle: saline) was 93 % of control, the T/C (endpoint: mean survival time, dose: 150.0 mg/kg/injection, schedule: Q01DX001 (ip), vehicle: saline) was 100 % of control and the T/C (endpoint: mean survival time, dose: 300.0 mg/kg/injection, schedule: Q01DX001 (ip), vehicle: saline) was 104 % of control.
`O=P(N1CCCC1)(N1CCCC1)N1CCCC1.O=[N+]([O-])O.O=[N+]([O-])O.[O]=[U]=[O]` was tested, and the T/C (endpoint: mean survival time, dose: 3.12 mg/kg/injection, schedule: Q04DX003 (ip), vehicle: Klucel (hydroxypropylcellulose) (HPC)) was 102 % of control and the T/C (endpoint: mean survival time, dose: 12.5 mg/kg/injection, schedule: Q04DX003 (ip), vehicle: Klucel (hydroxypropylcellulose) (HPC)) was 102 % of control.
With `OC12C3CC4C5C3C3(Cl)C(Cl)(Cl)C5(Cl)C(Cl)(C41)C23Cl` (stereo not drawn) the T/C (endpoint: mean survival time, dose: 1.25 mg/kg/injection, schedule: Q01DX001 (ip), vehicle: other) was 107 % of control, the T/C (endpoint: mean survival time, dose: 2.5 mg/kg/injection, schedule: Q01DX001 (ip), vehicle: other) was 103 % of control and the T/C (endpoint: mean survival time, dose: 5.0 mg/kg/injection, schedule: Q01DX001 (ip), vehicle: other) was 100 % of control.
For `COC(=O)c1ccc(OC)c(I)c1`, the T/C [7] was 98 % of control, the T/C [8] was 123 % of control and the T/C [9] was 98 % of control.
`COc1ccc(OC)c(NC(=O)Oc2ccc(-c3ccccc3)cc2Cl)c1` was tested, and the T/C [3] was 105 % of control, the T/C [1] was 102 % of control and the T/C [2] was 106 % of control.
In the case of `NCCCCC(N)C(=O)O` (stereo not drawn), the T/C (endpoint: median survival time, dose: 3.13 mg/kg/injection, schedule: Q04DX002 (ip), vehicle: saline) is reported as 100 % of control, the T/C (endpoint: median survival time, dose: 6.25 mg/kg/injection, schedule: Q04DX002 (ip), vehicle: saline) is reported as 94 % of control and the T/C (endpoint: median survival time, dose: 25.0 mg/kg/injection, schedule: Q04DX002 (ip), vehicle: saline) is reported as 105 % of control. For the same compound, the T/C (endpoint: median survival time, dose: 50.0 mg/kg/injection, schedule: Q04DX002 (ip), vehicle: saline) was 117 % of control.
`CCc1nc2cc(C)c(C)cc2[nH]1` was tested, and the T/C (endpoint: mean survival time, dose: 12.5 mg/kg/injection, schedule: Q01DX009 (ip), vehicle: saline with Tween-80) was 97 % of control, the T/C (endpoint: mean survival time, dose: 25.0 mg/kg/injection, schedule: Q01DX009 (ip), vehicle: saline with Tween-80) was 100 % of control and the T/C (endpoint: mean survival time, dose: 25.0 mg/kg/injection, schedule: Q04DX003 (ip), vehicle: saline with Tween-80) was 89 % of control. For the same compound, the T/C (endpoint: mean survival time, dose: 50.0 mg/kg/injection, schedule: Q01DX009 (ip), vehicle: saline with Tween-80) was 95 % of control, the T/C (endpoint: mean survival time, dose: 50.0 mg/kg/injection, schedule: Q04DX003 (ip), vehicle: saline with Tween-80) was 89 % of control and the T/C [4] was 93 % of control.
In the case of `CC(C)(C)c1ccc(SCC#CCOc2ccc(Cl)cc2)cc1`, the T/C [3] is reported as 95 % of control, the T/C [4] is reported as 95 % of control and the T/C [1] is reported as 91 % of control. For the same compound, the T/C [5] was 96 % of control, the T/C [2] was 88 % of control and the T/C [6] was 87 % of control.
In the case of `O=C(Nc1ccc(Cl)cc1[N+](=O)[O-])c1ccc2ccccc2c1O`, the T/C (endpoint: mean survival time, dose: 100.0 mg/kg/injection, schedule: Q01DX001 (ip), vehicle: Klucel (hydroxypropylcellulose) (HPC)) is reported as 100 % of control, the T/C (endpoint: mean survival time, dose: 200.0 mg/kg/injection, schedule: Q01DX001 (ip), vehicle: Klucel (hydroxypropylcellulose) (HPC)) is reported as 105 % of control and the T/C (endpoint: mean survival time, dose: 400.0 mg/kg/injection, schedule: Q01DX001 (ip), vehicle: Klucel (hydroxypropylcellulose) (HPC)) is reported as 100 % of control.
With `COc1ccc(-c2sc(/N=C/c3ccc(-c4ccccc4)cc3)c(C#N)c2C)cc1OC` the T/C [3] was 97 % of control, the T/C [1] was 100 % of control and the T/C [2] was 91 % of control.
`CS(=O)(=O)OCCCN(CCCOS(C)(=O)=O)c1ccc(C=Nc2ccc(-c3csc(COc4ccc(Cl)cc4)n3)cc2)cc1` was tested, and the T/C [10] was 91 % of control, the T/C [11] was 91 % of control and the T/C (endpoint: mean survival time, dose: 400.0 mg/kg/injection, schedule: Q01DX001 (ip), vehicle: saline with Tween-80) was 95 % of control.
With `CS/C([S-])=N/[NH-].CS/C([S-])=N/[NH-].[Pd]` the T/C [10] was 107 % of control and the T/C [11] was 103 % of control.
With `N#Cc1ncn(C2OC(CO)C(O)C2O)c1N` (stereo not drawn) the T/C [7] was 102 % of control, the T/C [8] was 105 % of control and the T/C [9] was 109 % of control.
For `Clc1ccc2c(c1)Nc1cc(Cl)ccc1C=C2`, the T/C [4] was 98 % of control, the T/C [5] was 93 % of control and the T/C [6] was 87 % of control.
For `CCCC1(CCC)c2ccccc2C(Cl)(CCl)c2ccccc21`, the T/C (endpoint: mean survival time, dose: 12.5 mg/kg/injection, schedule: Q01DX009 (ip), vehicle: other) was 88 % of control, the T/C (endpoint: mean survival time, dose: 25.0 mg/kg/injection, schedule: Q01DX009 (ip), vehicle: other) was 94 % of control and the T/C (endpoint: mean survival time, dose: 50.0 mg/kg/injection, schedule: Q01DX009 (ip), vehicle: other) was 92 % of control. For the same compound, the T/C (endpoint: mean survival time, dose: 100.0 mg/kg/injection, schedule: Q01DX009 (ip), vehicle: other) was 94 % of control and the T/C (endpoint: mean survival time, dose: 200.0 mg/kg/injection, schedule: Q01DX009 (ip), vehicle: other) was 86 % of control.
With `COC(=O)CC(=O)C12OC1CC1C3CC=C4CC(OC(C)=O)CCC4(C)C3CCC12C` (stereo not drawn) the T/C (endpoint: mean survival time, dose: 75.0 mg/kg/injection, schedule: Q04DX003 (sc), vehicle: steriod suspending solution) was 101 % of control, the T/C (endpoint: mean survival time, dose: 150.0 mg/kg/injection, schedule: Q04DX003 (sc), vehicle: steriod suspending solution) was 103 % of control and the T/C (endpoint: mean survival time, dose: 300.0 mg/kg/injection, schedule: Q04DX003 (sc), vehicle: steriod suspending solution) was 97 % of control.
`C=CCCCCCCCCC(=O)NCC[N+](C)(C)C` was tested, and the T/C (endpoint: mean survival time, dose: 6.25 mg/kg/injection, schedule: Q01DX009 (ip), vehicle: saline) was 104 % of control, the T/C (endpoint: mean survival time, dose: 6.25 mg/kg/injection, schedule: Q04DX003 (ip), vehicle: saline) was 96 % of control and the T/C (endpoint: mean survival time, dose: 12.5 mg/kg/injection, schedule: Q01DX009 (ip), vehicle: saline) was 101 % of control. For the same compound, the T/C (endpoint: mean survival time, dose: 12.5 mg/kg/injection, schedule: Q04DX003 (ip), vehicle: saline) was 97 % of control, the T/C (endpoint: mean survival time, dose: 25.0 mg/kg/injection, schedule: Q01DX009 (ip), vehicle: saline) was 106 % of control and the T/C (endpoint: mean survival time, dose: 25.0 mg/kg/injection, schedule: Q04DX003 (ip), vehicle: saline) was 102 % of control.
